We go through 18 compounds from PubChem BioAssay AID651703 (Broad Institute, 2012).

What is called AC50 is the midpoint of the concentration-response curve, whichever way the signal moves.

SMILES strings stand for the structures.

This test concerns the target Transforming acidic coiled-coil-containing protein 3 (Homo sapiens) (UniProt Q9Y6A5). Kind of test: ARNT/TACC3 interaction disruptors, potency, confirmation, biochemical, AlphaScreen, cherry-picked samples (AID 651703).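 Also: TACC3 partner is the GST-tagged E629A mutant dimer; hits lower the signal meaning they disrupt ARNT binding to TACC3.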 The note with it: AlphaScreen His-ARNT PAS-B / GST-TACC3 binding, luminescence.
Regarding `Brc1ccc(OCc2nc(-c3ccccn3)n[nH]2)cc1`, the AC50 was 3.6 µM.

`c1ccc(CNc2nc(-c3ccccn3)nnc2-c2ccccc2)cc1`: the concentration at half-maximal activity (AC50) is less than 0.5 µM.

Regarding `c1ccc(-c2cn3c(n2)CCc2ccc4cccnc4c2-3)cc1`, the AC50 is 21.2 µM.

`OCC1CCN(Cc2ccc(O)c3ncccc23)CC1`: the AC50 is less than 0.5 µM.

Turning to `CO[C@@H]1CN(C)C(=O)c2ccc(NC(=O)c3ccccn3)cc2OC[C@@H](C)N(Cc2ccccn2)C[C@H]1C`, the AC50 is 7.1 µM.

Turning to `O=C(O)c1ncn(Cc2ccccc2)c1C(=O)O`, the AC50 was 13.8 µM.

Take `O=C(O)c1ccc(C2CCCCC2)cn1`: the AC50 was 3.12 µM.

For the compound `O=C(Nc1nnc(-c2ccncc2)o1)c1ccccc1`, the AC50 was 18.8 µM.

On to `CCN(CC)C(=O)c1sc2nc(-c3ccccn3)[nH]c(=O)c2c1C`, for which the AC50 was 10.5 µM.

Turning to `C[C@@H]1CN([C@H](C)CO)C(=O)c2cc(NC(=O)Nc3ccc(C(F)(F)F)cc3)ccc2O[C@@H](C)CCCCO[C@@H]1CN(C)Cc1ccc2c(c1)OCO2`, the AC50 is 38.1 µM.

Turning to `CCOC(=O)c1cnc(-n2[nH]c(C)cc2=O)[nH]c1=O`, the AC50 is 0.754 µM.

In the case of `O=S(=O)(c1ccccc1)N1C[C@H]2[C@@H](c3ccccc31)[C@@H](CO)N2Cc1ccccn1`, the AC50 is 52.3 µM.

Regarding `CC(Oc1ccccc1)C(=O)Nc1nc(-c2ccccn2)cs1` (stereo not drawn), the AC50 is 13.2 µM.

In the case of `N[C@@H]1CC[C@H](CCn2cc(-c3ccccn3)nn2)O[C@H]1CO`, the AC50 is 1.13 µM.

In the case of `CC1CN(Cc2ccc(O)c3ncccc23)CC(C)O1` (stereo not drawn), the AC50 was 2.59 µM.

As for `CCN(CC)c1ccc(C(=C2C=CC(=[N+](CC)CC)C=C2)c2ccc(N(CC)CC)cc2)cc1`, the AC50 was 0.734 µM.

On to `COC(=O)c1ccc(NC(=O)CSc2ccc(-c3ccccn3)nn2)cc1`, for which the AC50 is 2.57 µM.

Take `Cc1ccc(-n2c(SCC(N)=O)nnc2-c2ccccn2)cc1`: the AC50 is 34.7 µM.
